Values of other authors in US20260272826A1 (THEAPRIN PHARMACEUTICALS, INC., priority 2017, published 2026).

Legend:
[1] = tribasic
[2] = test system: rats; conditions: rat, in vivo
[3] = test system: thrombin stimulated thromboxane formulation in whole blood; conditions: theanine by itself

Row | Compound | pKa 1 ([1]; first of pKa 1-3) | pKa 2 ([1]; second of pKa 1-3) | pKa 3 ([1]; third of pKa 1-3) | solubility in water | LD50 toxicity [2] | inhibition of thrombin stimulated thromboxane formulation [3]
1 | O=C(O)CC(O)(CC(=O)O)C(=O)O [Citric Acid, 2-hydroxypropane-1,2,3-tricarboxylic acid] | 5.21 | 4.28 | 2.92 |  |  | 
2 | CCNC(=O)CC[C@H](N)C(=O)O [L-theanine, N-ethyl-L-glutamine] |  |  |  | soluble in water | > 5000 mg/kg | potent inhibitor
